Results: ChEMBL document CHEMBL5331051, “Cationic, amphipathic small molecules based on a triazine-piperazine-triazine scaffold as a new class of antimicrobial agents” (Eur J Med Chem, 2022)
Active and inactive are the calls of the source. The rule behind the calls is not given here.

Columns and labels:
[1] = test system: Cell membrane; assay: Induction of cell membrane depolarization in Staphylococcus aureus assessed as increase in fluorescence intensity at 2 times MIC by DiSC3(5) dye based fluorescence assay
[2] = test system: Pseudomonas aeruginosa; assay: Additive antibacterial activity against multidrug-resistant Pseudomonas aeruginosa CCARM 2095 strain assessed as oxacillin fractional inhibitory concentration by checkerboard assay; format: functional
[3] = test system: Pseudomonas aeruginosa; assay: Additive antibacterial activity against multidrug-resistant Pseudomonas aeruginosa CCARM 2095 strain assessed as Oxacillin MIC by checkerboard assay; format: functional
[4] = test system: Pseudomonas aeruginosa; assay: Additive antibacterial activity against multidrug-resistant Pseudomonas aeruginosa CCARM 2095 strain assessed as chloramphenicol MIC by checkerboard assay; format: functional
[5] = test system: Pseudomonas aeruginosa; assay: Additive antibacterial activity against multidrug-resistant Pseudomonas aeruginosa CCARM 2095 strain assessed as fractional inhibitory concentration index in presence of chloramphenicol by checkerboard assay; format: functional
[6] = test system: Pseudomonas aeruginosa; assay: Additive antibacterial activity against multidrug-resistant Pseudomonas aeruginosa CCARM 2095 strain assessed as bacterial growth inhibition by checkerboard assay; format: functional
[7] = test system: Lipopolysaccharide (LPS); assay: Displacement of BODIPY-TR-cadaverine from Escherichia coli O111:B4 lipopolysaccharide assessed as increase in fluorescence at 5 ug/ml by fluorescence based assay; details: dose 5.0 µg/ml
[8] = test system: Cell membrane; assay: Induction of cell membrane depolarization in Staphylococcus aureus assessed as fluorescence intensity at 2 to 16 times MIC by DiSC3(5) dye based fluorescence assay; format: subcellular
[9] = test system: Pseudomonas aeruginosa; assay: Additive antibacterial activity against multidrug-resistant Pseudomonas aeruginosa CCARM 2095 strain assessed as fractional inhibitory concentration in presence of oxacillin by checkerboard assay; format: functional
[10] = test system: Pseudomonas aeruginosa; assay: Antibiofilm activity against multidrug-resistant Pseudomonas aeruginosa assessed as inhibition of biofilm formation; format: functional
[11] = test system: Staphylococcus aureus; assay: Additive antibacterial activity against multidrug-resistant Staphylococcus aureus CCARM 3089 strain assessed as fractional inhibitory concentration index in presence of ciprofloxacin by checkerboard assay; format: functional
[12] = test system: Lipopolysaccharide (LPS); assay: Binding affinity to Escherichia coli O111:B4 lipopolysaccharide assessed as suppression of FTIC labeled LPS binding to mouse RAW264.7 cells at 20 ug/ml pretreated LPS with cells for 1 hr followed by compound addition measured after 1 hr by flow cytometer assay (reference value: 48.12%); format: cell-based; details: dose 20.0 µg/ml
[13] = test system: Pseudomonas aeruginosa; assay: Additive antibacterial activity against multidrug-resistant Pseudomonas aeruginosa CCARM 2095 strain assessed as bacterial growth inhibition in presence of ciprofloxacin by checkerboard assay; format: functional
[14] = test system: Staphylococcus aureus; assay: Additive antibacterial activity against methicillin-resistant Staphylococcus aureus CCARM 3089 strain assessed as bacterial growth inhibition in presence of ciprofloxacin by checkerboard assay; format: functional
[15] = test system: Pseudomonas aeruginosa; assay: Additive antibacterial activity against multidrug-resistant Pseudomonas aeruginosa CCARM 2095 strain assessed as bacterial growth inhibition in presence of oxacillin by checkerboard assay; format: functional
[16] = test system: Staphylococcus aureus; assay: Additive antibacterial activity against methicillin-resistant Staphylococcus aureus CCARM 3089 strain assessed as oxacillin MIC by checkerboard assay; format: functional
[17] = test system: Staphylococcus aureus; assay: Additive antibacterial activity against methicillin-resistant Staphylococcus aureus CCARM 3089 strain assessed as ciprofloxacin MIC by checkerboard assay; format: functional
[18] = test system: Pseudomonas aeruginosa; assay: Additive antibacterial activity against multidrug-resistant Pseudomonas aeruginosa CCARM 2095 strain assessed as fractional inhibitory concentration in presence of ciprofloxacin by checkerboard assay; format: functional
[19] = test system: Cell membrane; assay: Induction of inner membrane permeabilization in Escherichia coli ML-35 assessed as increase in […] at 2 times MIC by ONPG staining based analysis
[20] = test system: Pseudomonas aeruginosa; assay: Antibiofilm activity against multidrug-resistant Pseudomonas aeruginosa assessed as biofilm eradication; format: functional
[21] = test system: Pseudomonas aeruginosa; assay: Additive antibacterial activity against multidrug-resistant Pseudomonas aeruginosa CCARM 2095 strain assessed as fractional inhibitory concentration index in presence of ciprofloxacin by checkerboard assay; format: functional
[22] = test system: Lipopolysaccharide (LPS); assay: Binding affinity to Escherichia coli O111:B4 lipopolysaccharide assessed as suppression of FTIC labeled LPS binding to mouse RAW264.7 cells at 20 ug/ml pretreated with LPS followed by compound addition by flow cytometer assay (reference value: 67.4%); format: cell-based; details: dose 20.0 µg/ml
[23] = test system: Pseudomonas aeruginosa; assay: Additive antibacterial activity against multidrug-resistant Pseudomonas aeruginosa CCARM 2095 strain assessed as fractional inhibitory concentration in presence of chloramphenicol by checkerboard assay; format: functional
[24] = test system: Pseudomonas aeruginosa; assay: Additive antibacterial activity against multidrug-resistant Pseudomonas aeruginosa CCARM 2095 strain assessed as bacterial growth inhibition in presence of chloramphenicol by checkerboard assay; format: functional
[25] = test system: Pseudomonas aeruginosa; assay: Additive antibacterial activity against multidrug-resistant Pseudomonas aeruginosa CCARM 2095 strain assessed as ciprofloxacin fractional inhibitory concentration by checkerboard assay; format: functional
[26] = test system: Staphylococcus aureus; assay: Additive antibacterial activity against methicillin-resistant Staphylococcus aureus CCARM 3089 strain assessed as bacterial growth inhibition in presence of oxacillin by checkerboard assay; format: functional
[27] = test system: Staphylococcus aureus; assay: Additive antibacterial activity against methicillin-resistant Staphylococcus aureus CCARM 3089 strain assessed as bacterial growth inhibition in presence of chloramphenicol by checkerboard assay; format: functional
[28] = test system: Staphylococcus aureus; assay: Antibacterial activity against methicillin-resistant Staphylococcus aureus CCARM 3089 strain assessed as bacterial growth inhibition by checkerboard assay; format: functional
[29] = test system: Staphylococcus aureus; assay: Additive antibacterial activity against methicillin-resistant Staphylococcus aureus CCARM 3089 strain assessed as chloramphenicol MIC by checkerboard assay; format: functional
[30] = test system: Pseudomonas aeruginosa; assay: Additive antibacterial activity against multidrug-resistant Pseudomonas aeruginosa CCARM 2095 strain assessed as ciprofloxacin MIC by checkerboard assay; format: functional
[31] = test system: Cell membrane; assay: Induction of cell membrane depolarization in Staphylococcus aureus assessed as increase in fluorescence intensity at 2 times MIC by SYTOX green staining based analysis
[32] = test system: Pseudomonas aeruginosa; assay: Additive antibacterial activity against multidrug-resistant Pseudomonas aeruginosa CCARM 2095 strain assessed as chloramphenicol fractional inhibitory concentration by checkerboard assay; format: functional
[33] = test system: Staphylococcus aureus; assay: Additive antibacterial activity against multidrug-resistant Staphylococcus aureus CCARM 3089 strain assessed as fractional inhibitory concentration index in presence of chloramphenicol by checkerboard assay; format: functional
[34] = test system: Pseudomonas aeruginosa; assay: Additive antibacterial activity against multidrug-resistant Pseudomonas aeruginosa CCARM 2095 strain assessed as fractional inhibitory concentration index in presence of oxacillin by checkerboard assay; format: functional
[35] = test system: Cell membrane; assay: Induction of outer membrane permeabilization in Escherichia coli KCTC 1682 assessed as increase in fluorescence intensity at 2 to 8 ug/ml by NPN staining based analysis; details: dose 2-8 µg/ml

CC[C@H](C)[C@H](NC(=O)[C@H](CCCCN)NC(=O)[C@H](CCC(=O)O)NC(=O)[C@H](CCCCN)NC(=O)[C@H](CO)NC(=O)[C@H](CCCCN)NC(=O)[C@H](CCCNC(=N)N)NC(=O)[C@H](Cc1ccccc1)NC(=O)[C@H](Cc1ccccc1)NC(=O)[C@H](CC(=O)O)NC(=O)CNC(=O)[C@H](CC(C)C)NC(=O)[C@@H](N)CC(C)C)C(=O)NCC(=O)N[C@@H](CCCCN)C(=O)N[C@@H](CCC(=O)O)C(=O)N[C@@H](Cc1ccccc1)C(=O)N[C@@H](CCCCN)C(=O)N[C@@H](CCCNC(=N)N)C(=O)N[C@H](C(=O)N[C@H](C(=O)N[C@@H](CCC(N)=O)C(=O)N[C@@H](CCCNC(=N)N)C(=O)N[C@H](C(=O)N[C@@H](CCCCN)C(=O)N[C@@H](CC(=O)O)C(=O)N[C@@H](Cc1ccccc1)C(=O)N[C@@H](CC(C)C)C(=O)N[C@@H](CCCNC(=N)N)C(=O)N[C@@H](CC(N)=O)C(=O)N[C@@H](CC(C)C)C(=O)N[C@H](C(=O)N1CCC[C@H]1C(=O)N[C@@H](CCCNC(=N)N)C(=O)N[C@H](C(=O)N[C@@H](CCC(=O)O)C(=O)N[C@@H](CO)C(=O)O)[C@@H](C)O)C(C)C)[C@@H](C)CC)C(C)C)[C@@H](C)CC [CATHELICIDIN]
Activity [1]: Active
FIC [2]: 0.5
MIC [3]: 512 µg/mL
MIC [4]: 512 µg/mL
fractional inhibitory concentration index (FICI) [5]: 1
MIC [6]: 32 µg/mL
Activity [7]: inactive
Activity [8]: inactive
FIC [9]: 0.25
MBEC50 [10]: 14.2 µM
MBEC90 [10]: 28.5 µM
MBIC [10]: >7 µM
MBIC50 [10]: 3.6 µM
fractional inhibitory concentration index (FICI) [11]: 0.75
Flu intensity [12]: 18.3%
MIC [13]: 16 µg/mL
MIC [14]: 32 µg/mL
MIC [15]: 8 µg/mL
MIC [16]: 256 µg/mL
MIC [17]: 128 µg/mL
FIC [18]: 0.5
Activity [19]: Active
MBEC50 [20]: 14.2 µM
MBEC90 [20]: 28.5 µM
fractional inhibitory concentration index (FICI) [21]: 0.75
Flu intensity [22]: 10.4%
FIC [23]: 0.5
MIC [24]: 16 µg/mL
FIC [25]: 0.25
MIC [26]: 32 µg/mL
MIC [27]: 32 µg/mL
MIC [28]: 64 µg/mL
MIC [29]: 64 µg/mL
MIC [30]: 256 µg/mL
Activity [31]: Active
FIC [32]: 0.5
fractional inhibitory concentration index (FICI) [33]: 0.675
fractional inhibitory concentration index (FICI) [34]: 0.75
Activity [35]: Active
